Assay [1] deals with Pgp C952A control and the five aromatic replacement mutants (Y303A, Y306A, F724A, F728A, F979A). Nature of the assay: Effect of BDE-100 on basal and verapamil-stimulated ATPase activity. In kind it is biochemical, mouse. The settings on record: BDE-100 at 50, 75 and 100 µM. On the procedure: Figure 3 The effect of BDE-100 on the verapamil-stimulated ATPase activity of the six Pgp mutations. […]. The level of BDE-100 inhibition of the verapamil-stimulated ATPase EC50 for each mutant is also shown. P values were determined from a two-tailed unequal variance test: ****, p ≤ 0.0001; ***, p ≤0.0001–0.001; *, p ≤0.05–0.01. […]
(Figure 4) were chosen to yield a more finely sampled dose response for this figure. BDE-100 alone had little effect on Pgp ATPase activity. Inhibitory effects of BDE-100 at 50 µM, 75 µM and 100 µM on the Verapamil-EC50 specific to each mutant were determined. All measurements were determined with seven independent measurements (n=7).
(1 picture or pasted object on this page, not shown here)

The target in assay [2] is T1, Pgp C952A (Mus musculus, UniProt P21447, C952A).
T1 construct: 6xHis (C); made in house; host or cells: Pichia pastoris
Nature of the assay: Co-crystal structure, occupancy refinement of BDE-100. The assay is classed as binding. On the procedure:
(§1) To reproduce the binding of BDE-100 to Pgp and maintain crystal isomorphism, we utilized the reductive-methylation protocol of Ward et al. (2013[▸]) with some modifications. Fresh dimethylamine–borane (20 mM; Sigma–Aldrich) and 16% formaldehyde (40 mM; Thermo Scientific) were added to 1–3 mg mouse Pgp. The mixture was incubated for 2 h at 4°C and further dimethylamine–borane and formaldehyde were added after 2 h. After incubation for 16 h at 4°C, the reaction was quenched with cold glycine on ice for 2 h and flushed with SEC buffer (10 mM Tris–HCl pH 7.5, 75 mM NaCl, 0.0375% DDM, 0.04% sodium cholate, 0.1 mM TCEP). The eluted protein was concentrated to 2–3 mg ml^−1 and incubated with 0.5 mM BDE-100 (AccuStandard) dissolved in DMSO in the dark for 16 h at 4°C. The precipitate was centrifuged and the extracted sample was […] 1:10 in SEC buffer to give a final concentration of 10–13 mg ml^−1. Crystallization was set up using 3 µl sitting drops in 24-well Cryschem plates (Hampton Research) with a 1:1 ratio of protein solution and reservoir solution [0.1 M HEPES, 50 mM lithium sulfate, 10 mM EDTA, 26–28.5%(w/v) polyethylene glycol (PEG) 600 pH 7.9–8.4]. Crystals could be visualized after ∼3 days at 4°C and reached full size in ∼4 weeks.
(§2) X-ray diffraction data were collected at 100 K on beamline 23-ID-D at the Advanced Photon Source (APS). MAD scans were obtained from Pgp–BDE-100 co-crystals near the Br K edge to optimize for the strongest anomalous signal at the beginning of each data-collection session and whenever data were collected from a new mutant. The data were processed, integrated and scaled with HKL-2000 (Otwinowski & Minor, 1997[▸]). The Pgp structures were solved by molecular replacement using the previously solved BDE-100 complex structure (PDB entry 4xwk; Nicklisch et al., 2016[▸]) without the BDE-100 (Table 1 ▸) using an initial rigid-body refinement of the two pseudosymmetric halves of the protein. Subsequent rounds included the full molecule with chains linked including ligands. Phenix.elbow was used to produce ligand description dictionaries (Adams et al., 2010[▸]) and the placement of BDE-100 was verified by anomalous scattering of the Br atoms and OMIT density (see Fig. 1 ▸ for top views, Supplementary Fig. S1 for side views and Supplementary Fig. S2 for ligand F o − F c OMIT maps) calculated via CNS (Brünger et al., 1998[▸]). The structures agreed with the previously solved structure as our control mutant (C952A) contained BDE-100 in the same position based on experimental data. All models were subjected to rigid-body, xyz, group B-factor and individual B-factor refinement using phenix.refine (Afonine et al., 2010[▸]) and the model geometry was monitored using MolProbity (Chen et al., 2010[▸]) in the absence of the ligand. The BDE-100 atoms were then modeled and the structures were subjected to the same refinement steps including occupancy refinement using an occupancy of 0.5 as the starting point. […] We conclude there is a sufficient data-to-parameter ratio to refine both B factors and occupancy for the BDE-100 ligand in PDB entry 4xwk as well as in all of our structures. Our own refinement of PDB entry 4xwk yielded a ligand occupancy of 0.66 and our control mutant C952A agreed very well, with a refined occupancy of 0.67 (for a full list, see Table 2 ▸). The refined occupancy values for ligands also agreed very well with the intensities of their respective anomalous difference Fourier electron densities. Data statistics and parameters supporting the quality of the structures are presented in Table 1 ▸ and Supplementary Table S1. Figures were prepared and r.m.s.d.s were calculated in PyMOL (version 1.8; Schrödinger). […]

The target in assay [3] is T2, Pgp C952A/F724A (Mus musculus, UniProt P21447, C952A/F724A).
T2 construct: 6xHis (C); made in house; host or cells: Pichia pastoris
The description is as above. The assay is classed as binding. How it is done: as §1, §2

The target in assay [4] is T3, Pgp C952A/F728A (Mus musculus, UniProt P21447, C952A/F728A).
T3 construct: 6xHis (C); made in house; host or cells: Pichia pastoris
Described as above. In kind it is binding. On the procedure:
as §1, §2

Assay [5] deals with T4, Pgp C952A/F979A (Mus musculus, UniProt P21447, C952A/F979A).
T4 construct: 6xHis (C); made in house; host or cells: Pichia pastoris
The description is as above. The assay is classed as binding. On the procedure:
as §1, §2

The target in assay [6] is T5, Pgp C952A/Y303A (Mus musculus, UniProt P21447, C952A/Y303A).
T5 construct: 6xHis (C); made in house; host or cells: Pichia pastoris
Described as above. The assay is classed as binding. How it is done: as §1, §2

For assay [7], the target named is T6, Pgp C952A/Y306A (Mus musculus, UniProt P21447, C952A/Y306A).
T6 construct: 6xHis (C); made in house; host or cells: Pichia pastoris
The assay is described as above. The assay is classed as binding. How it is done: as §1, §2

In assay [8] the target is Pgp (PDB entry 4xwk) (Mus musculus, UniProt P21447). Put plainly: Authors' own occupancy refinement of the published Pgp-BDE-100 structure. The conditions noted are these: own refinement using the deposited structure factors. In kind it is binding. An excerpt:
X-ray diffraction data were collected at 100 K on beamline 23-ID-D at the Advanced Photon Source (APS). MAD scans were obtained from Pgp–BDE-100 co-crystals near the Br K edge to optimize for the strongest anomalous signal at the beginning of each data-collection session and whenever data were collected from a new mutant. The data were processed, integrated and scaled with HKL-2000 (Otwinowski & Minor, 1997[▸]). The Pgp structures were solved by molecular replacement using the previously solved BDE-100 complex structure (PDB entry 4xwk; Nicklisch et al., 2016[▸]) without the BDE-100 (Table 1 ▸) using an initial rigid-body refinement of the two pseudosymmetric halves of the protein. […] Phenix.elbow was used to produce ligand description dictionaries (Adams et al., 2010[▸]) and the placement of BDE-100 was verified by anomalous scattering of the Br atoms and OMIT density (see Fig. 1 ▸ for top views, Supplementary Fig. S1 for side views and Supplementary Fig. S2 for ligand F o − F c OMIT maps) calculated via CNS (Brünger et al., 1998[▸]). […] All models were subjected to rigid-body, xyz, group B-factor and individual B-factor refinement using phenix.refine (Afonine et al., 2010[▸]) and the model geometry was monitored using MolProbity (Chen et al., 2010[▸]) in the absence of the ligand. […] Figures were prepared and r.m.s.d.s were calculated in PyMOL (version 1.8; Schrödinger). […]

The subject of assay [9] is wild-type Pgp. On the set-up: method as in Nicklisch et al., 2016. The conditions noted are these: ref Nicklisch et al., 2016, cited from earlier work.

“Also recorded” adds a separate entry of the source. Marks after values point to notes of the source that are not given here.

T6 sequence (P21447 whole entry Y306A/C952A): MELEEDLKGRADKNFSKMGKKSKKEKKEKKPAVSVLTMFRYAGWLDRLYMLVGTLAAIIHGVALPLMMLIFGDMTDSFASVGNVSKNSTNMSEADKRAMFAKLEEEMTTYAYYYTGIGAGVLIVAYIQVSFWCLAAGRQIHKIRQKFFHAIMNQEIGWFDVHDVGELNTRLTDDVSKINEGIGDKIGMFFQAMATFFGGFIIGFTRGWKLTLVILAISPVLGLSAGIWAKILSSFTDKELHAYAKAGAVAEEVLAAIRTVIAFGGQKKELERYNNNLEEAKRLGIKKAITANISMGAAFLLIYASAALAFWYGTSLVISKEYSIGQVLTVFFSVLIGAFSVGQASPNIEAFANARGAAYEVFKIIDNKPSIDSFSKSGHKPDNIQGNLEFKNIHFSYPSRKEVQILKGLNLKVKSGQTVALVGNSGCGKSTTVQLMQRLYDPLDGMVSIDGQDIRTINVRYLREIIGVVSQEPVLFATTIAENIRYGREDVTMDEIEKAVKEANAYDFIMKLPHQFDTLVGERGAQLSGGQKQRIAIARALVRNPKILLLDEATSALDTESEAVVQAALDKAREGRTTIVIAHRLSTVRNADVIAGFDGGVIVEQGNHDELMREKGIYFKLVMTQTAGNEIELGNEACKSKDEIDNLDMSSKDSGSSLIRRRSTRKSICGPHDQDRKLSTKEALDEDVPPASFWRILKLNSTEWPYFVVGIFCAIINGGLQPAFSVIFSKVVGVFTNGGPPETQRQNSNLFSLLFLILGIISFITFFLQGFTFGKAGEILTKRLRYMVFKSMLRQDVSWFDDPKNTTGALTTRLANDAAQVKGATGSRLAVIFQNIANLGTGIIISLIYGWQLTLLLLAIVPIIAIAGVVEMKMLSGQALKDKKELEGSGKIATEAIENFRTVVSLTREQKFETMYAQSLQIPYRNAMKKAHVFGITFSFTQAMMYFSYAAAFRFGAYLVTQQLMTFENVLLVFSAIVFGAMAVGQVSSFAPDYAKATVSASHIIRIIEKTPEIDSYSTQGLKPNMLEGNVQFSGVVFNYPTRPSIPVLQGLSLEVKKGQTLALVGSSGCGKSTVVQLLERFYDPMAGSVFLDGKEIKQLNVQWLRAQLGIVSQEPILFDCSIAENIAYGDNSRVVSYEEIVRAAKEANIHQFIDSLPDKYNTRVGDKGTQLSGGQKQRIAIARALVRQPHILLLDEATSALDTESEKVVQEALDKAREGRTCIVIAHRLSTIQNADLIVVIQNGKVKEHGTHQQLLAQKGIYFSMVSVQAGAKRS
T1 sequence (P21447 whole entry C952A): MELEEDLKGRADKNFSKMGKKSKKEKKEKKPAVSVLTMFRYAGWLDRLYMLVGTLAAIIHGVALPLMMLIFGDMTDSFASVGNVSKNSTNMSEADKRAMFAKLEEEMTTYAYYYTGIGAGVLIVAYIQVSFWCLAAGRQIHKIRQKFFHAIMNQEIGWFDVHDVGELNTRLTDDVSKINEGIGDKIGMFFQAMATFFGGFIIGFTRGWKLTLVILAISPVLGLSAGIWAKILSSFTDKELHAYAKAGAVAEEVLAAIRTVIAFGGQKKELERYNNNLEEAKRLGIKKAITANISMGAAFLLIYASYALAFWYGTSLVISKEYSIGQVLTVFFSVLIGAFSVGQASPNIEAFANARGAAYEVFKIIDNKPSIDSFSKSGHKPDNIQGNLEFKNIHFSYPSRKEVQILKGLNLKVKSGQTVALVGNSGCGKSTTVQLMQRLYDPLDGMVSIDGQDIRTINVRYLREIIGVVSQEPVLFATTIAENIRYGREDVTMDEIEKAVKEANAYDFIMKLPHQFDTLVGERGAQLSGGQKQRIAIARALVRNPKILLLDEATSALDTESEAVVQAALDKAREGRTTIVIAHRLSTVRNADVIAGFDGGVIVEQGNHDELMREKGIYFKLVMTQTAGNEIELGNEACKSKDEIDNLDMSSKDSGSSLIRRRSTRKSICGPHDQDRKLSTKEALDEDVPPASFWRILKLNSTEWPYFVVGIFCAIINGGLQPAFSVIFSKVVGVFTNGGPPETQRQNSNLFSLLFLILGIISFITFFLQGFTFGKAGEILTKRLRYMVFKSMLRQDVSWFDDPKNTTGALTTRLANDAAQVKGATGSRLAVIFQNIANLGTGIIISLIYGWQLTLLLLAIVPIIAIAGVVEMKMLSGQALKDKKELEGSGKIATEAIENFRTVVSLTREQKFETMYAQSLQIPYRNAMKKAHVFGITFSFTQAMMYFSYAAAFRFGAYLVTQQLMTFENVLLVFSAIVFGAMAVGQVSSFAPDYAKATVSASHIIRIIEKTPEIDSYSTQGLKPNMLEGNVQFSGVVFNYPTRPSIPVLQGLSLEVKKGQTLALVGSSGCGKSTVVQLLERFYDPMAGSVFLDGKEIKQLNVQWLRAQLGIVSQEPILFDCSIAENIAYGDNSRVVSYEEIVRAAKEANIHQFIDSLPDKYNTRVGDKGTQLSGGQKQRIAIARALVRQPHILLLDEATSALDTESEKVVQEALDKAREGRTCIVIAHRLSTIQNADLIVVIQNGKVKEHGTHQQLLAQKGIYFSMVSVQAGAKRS
T5 sequence (P21447 whole entry Y303A/C952A): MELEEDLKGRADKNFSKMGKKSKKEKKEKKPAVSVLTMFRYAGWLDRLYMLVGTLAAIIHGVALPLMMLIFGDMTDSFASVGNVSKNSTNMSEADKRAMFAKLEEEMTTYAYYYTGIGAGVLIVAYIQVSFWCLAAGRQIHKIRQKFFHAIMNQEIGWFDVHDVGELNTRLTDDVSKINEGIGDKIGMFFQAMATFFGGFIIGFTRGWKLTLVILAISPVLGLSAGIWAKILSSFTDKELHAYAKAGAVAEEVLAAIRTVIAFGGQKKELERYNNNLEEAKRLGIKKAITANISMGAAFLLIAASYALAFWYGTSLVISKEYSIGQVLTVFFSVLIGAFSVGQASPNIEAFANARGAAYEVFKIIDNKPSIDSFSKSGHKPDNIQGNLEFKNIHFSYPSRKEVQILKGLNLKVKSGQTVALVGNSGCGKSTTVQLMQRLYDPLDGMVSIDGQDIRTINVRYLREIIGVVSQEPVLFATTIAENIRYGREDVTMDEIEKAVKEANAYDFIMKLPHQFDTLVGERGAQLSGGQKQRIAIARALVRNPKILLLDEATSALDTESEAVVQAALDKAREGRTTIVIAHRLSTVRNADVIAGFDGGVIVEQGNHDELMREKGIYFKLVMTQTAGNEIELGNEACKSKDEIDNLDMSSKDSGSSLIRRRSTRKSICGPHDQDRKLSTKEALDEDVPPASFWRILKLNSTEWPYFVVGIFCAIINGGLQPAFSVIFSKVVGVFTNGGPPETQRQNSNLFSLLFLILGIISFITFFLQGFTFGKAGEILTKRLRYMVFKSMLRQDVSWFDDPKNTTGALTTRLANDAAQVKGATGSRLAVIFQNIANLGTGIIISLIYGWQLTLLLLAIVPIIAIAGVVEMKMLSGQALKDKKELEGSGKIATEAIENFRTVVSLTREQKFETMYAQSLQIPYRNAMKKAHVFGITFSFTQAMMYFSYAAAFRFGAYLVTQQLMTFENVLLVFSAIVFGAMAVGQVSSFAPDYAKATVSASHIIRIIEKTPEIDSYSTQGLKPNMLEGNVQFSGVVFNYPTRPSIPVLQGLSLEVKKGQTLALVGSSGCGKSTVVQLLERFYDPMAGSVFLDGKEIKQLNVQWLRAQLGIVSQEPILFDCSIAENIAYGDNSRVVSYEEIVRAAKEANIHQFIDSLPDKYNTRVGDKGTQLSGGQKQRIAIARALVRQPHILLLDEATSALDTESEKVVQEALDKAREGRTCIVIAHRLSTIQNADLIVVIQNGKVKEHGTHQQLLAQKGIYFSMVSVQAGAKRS
Sequence of Pgp (PDB entry 4xwk) (P21447 whole entry): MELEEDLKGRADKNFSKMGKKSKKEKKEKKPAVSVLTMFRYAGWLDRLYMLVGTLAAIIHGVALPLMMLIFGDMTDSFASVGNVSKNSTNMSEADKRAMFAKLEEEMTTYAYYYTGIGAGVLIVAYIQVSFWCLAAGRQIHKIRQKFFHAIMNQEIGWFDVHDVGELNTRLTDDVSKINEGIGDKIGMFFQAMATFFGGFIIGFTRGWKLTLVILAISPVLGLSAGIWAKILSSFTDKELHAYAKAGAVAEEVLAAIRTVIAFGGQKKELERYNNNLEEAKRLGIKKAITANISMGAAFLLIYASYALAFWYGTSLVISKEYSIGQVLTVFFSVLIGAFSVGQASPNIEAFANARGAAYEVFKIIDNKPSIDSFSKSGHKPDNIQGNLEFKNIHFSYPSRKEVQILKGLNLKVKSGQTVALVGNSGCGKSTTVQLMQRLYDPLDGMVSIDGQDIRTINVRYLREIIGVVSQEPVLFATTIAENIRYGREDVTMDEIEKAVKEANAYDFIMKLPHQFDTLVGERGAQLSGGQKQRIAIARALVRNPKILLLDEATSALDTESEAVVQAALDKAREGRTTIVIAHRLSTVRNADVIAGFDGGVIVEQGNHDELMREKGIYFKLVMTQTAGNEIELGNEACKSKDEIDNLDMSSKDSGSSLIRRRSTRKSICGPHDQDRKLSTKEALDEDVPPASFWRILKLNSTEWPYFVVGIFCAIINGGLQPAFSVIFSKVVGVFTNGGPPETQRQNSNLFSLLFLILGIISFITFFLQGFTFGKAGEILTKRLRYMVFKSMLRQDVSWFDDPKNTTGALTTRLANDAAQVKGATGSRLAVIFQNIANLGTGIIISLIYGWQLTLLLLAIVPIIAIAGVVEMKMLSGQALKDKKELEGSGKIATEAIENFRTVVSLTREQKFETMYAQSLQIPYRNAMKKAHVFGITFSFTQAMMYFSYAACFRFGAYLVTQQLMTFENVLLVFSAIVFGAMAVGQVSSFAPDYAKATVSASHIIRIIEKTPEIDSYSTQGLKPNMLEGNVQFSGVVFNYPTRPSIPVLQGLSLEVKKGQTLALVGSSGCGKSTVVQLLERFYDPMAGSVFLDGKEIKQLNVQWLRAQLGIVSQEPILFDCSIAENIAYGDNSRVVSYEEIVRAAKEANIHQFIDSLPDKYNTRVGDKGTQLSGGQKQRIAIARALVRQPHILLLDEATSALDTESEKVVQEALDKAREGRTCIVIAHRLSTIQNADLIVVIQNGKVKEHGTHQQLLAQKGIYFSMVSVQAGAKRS

For the compound `Brc1ccc(Oc2c(Br)cc(Br)cc2Br)c(Br)c1` [BDE-100], the “Effect of BDE-100 alone on basal ATPase activity” value in [1] (absence of verapamil, C952A control and five mutants) was “did not increase the basal ATPase activity; also recorded: little effect”; in assay [9] (wild-type Pgp), “did not increase the basal ATPase activity”. In [1] (at the verapamil EC50 determined for each mutant), the “Effect of BDE-100 on verapamil-stimulated ATPase activity” value was “inhibited; also recorded: significant inhibitory effect”. Further, the “Occupancy of BDE-100, site 1” value is on record as 67% in assay [2] (C952A); 65% in assay [5]; 64% in [6]; 68% in assay [7]; 66% in [8]. Further, the “Refined ligand occupancy, site 1” value in assay [2] (C952A control, as fraction) turned out to be 0.67; in assay [8] (as fraction), 0.66. For the same compound, the “Occupancy of BDE-100, site 3” value in [3] was 35%. Further, in [4], the “Occupancy of BDE-100, site 1 (designated site 1A)” value was 53 ^† %. For the same compound, the “Occupancy of BDE-100, site 2” value is given as 48% in [4], 56% in assay [6] and 49% in [7]. For the same compound, the “Inhibition of verapamil-stimulated ATPase activity” value in [9] is “potent inhibitor”.
